Experimental data as given in patent US8815881B2 (Hoffmann-La Roche Inc., priority 2010, dated 2014).
pIC50: −log10 of the molar value.

Biological target: BACE2 enzyme ectodomain (Homo sapiens (Human), UniProt Q9Y5Z0)
Assay: Fluorescent-peptide cleavage assay for BACE2 inhibition
Format: biochemical
Details: assay b): fluorescent-peptide cleavage, pH 4.5 (superscript b)
Method: b) Fluorescent-Peptide Cleavage Assay for BACE2 Inhibition
BACE2 enzyme ectodomain (derived from plasmid “pET17b-T7-hu proBACE2”) was prepared as described in Ostermann et al., “Crystal Structure of Human BACE2 in Complex with a Hydroxyethylamine Transition-state Inhibitor”, Journal of Molecular Biology 2006, 355, 249-261. The pro-enzyme was stored at 4° C. at a concentration of 70 μg/ml.
A fluorescent peptide with the amino acid sequence WS EVNLD AEFRC-MR121 was synthesised and a stock solution of 1.5 mM in DMSO prepared and stored at −20° C. MR121 is a fluorophore with an excitation wavelength of 630 nm and emission wavelength of 695 nm. The MR121 fluorescence is quenched by the N-terminal tryptophan until the peptide is cleaved by BACE2.
Assays were all made in a Corning 384-well black polystyrene non-binding surface microtitre plate with clear flat bottom and using a Plate:Vision (Perkin Elmer) fluorescence reader. To perform the assay an 80 nM solution of BACE2 was prepared in assay buffer (assay buffer is 100 mM Na-acetate; 20 mM EDTA; 0.05% BSA; pH 4.5) and incubated at room temperature for 1 hour to activate the enzyme. 39 μl of the activated BACE2 was placed in each assay well, followed by 1 μl compound to be tested at an appropriate concentration in 100% DMSO. The plate was then mixed and incubated for 10 minutes at room temperature. To start the assay, 10 μl of a 1.5 μM solution fluorescent peptide in assay buffer was added and the fluorescence intensity in the assay mixture measured at 695 nm with an excitation wavelength of 630 nm for 30 minutes.
The assay readout is the rate of change of fluorescence intensity giving a relative measure of BACE2 activity. Small values correspond to high inhibition and larger values to low inhibition. To determine IC50 values (i.e. the concentration inhibiting the enzyme activity by 50%) of the compound for BACE2, typically, 15 assays were made with a range of concentrations chosen empirically to give low, high and intermediate inhibition of the protease. IC50 values were determined using these assay values generated for a range of inhibitor concentrations and the curve fitting software XLfit (IDBS) using the Sigmoidal Dose-Response Model.

BACE2 enzyme ectodomain, sequence (Q9Y5Z0 63-473): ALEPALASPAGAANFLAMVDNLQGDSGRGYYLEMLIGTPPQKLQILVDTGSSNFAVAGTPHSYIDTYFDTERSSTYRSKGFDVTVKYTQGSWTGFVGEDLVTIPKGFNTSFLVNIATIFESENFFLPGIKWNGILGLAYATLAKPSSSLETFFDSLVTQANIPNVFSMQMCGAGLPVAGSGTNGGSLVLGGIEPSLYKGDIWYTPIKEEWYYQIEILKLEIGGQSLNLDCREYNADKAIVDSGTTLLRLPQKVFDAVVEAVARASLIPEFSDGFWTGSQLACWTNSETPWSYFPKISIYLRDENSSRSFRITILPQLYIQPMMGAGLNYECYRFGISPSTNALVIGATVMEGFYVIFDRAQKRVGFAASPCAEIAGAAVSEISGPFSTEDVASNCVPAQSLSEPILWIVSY

SMILES | pIC50
COc1cc(Cl)c(C)cc1Nc1ccc(F)c([C@@]2(C)N=C(N)N(C)C(=O)C2(C)C)c1 [Example 154, (S)-2-Amino-6-(5-(4-chloro-2-methoxy-5-methylphenylamino)-2-fluorophenyl)-3,5,5,6-tetramethyl-5,6-dihydropyrimidin-4(3H)-one] | 7.46
CN1C(=O)C(C)(C)[C@@](C)(c2cc(Nc3ccc(S(C)(=O)=O)cc3)ccc2F)N=C1N [Example 164, (S)-2-Amino-6-(2-fluoro-5-(4-(methylsulfonyl)phenylamino)phenyl)-3,5,5,6-tetramethyl-5,6-dihydropyrimidin-4(3H)-one] | 5.96
CN1C(=O)C(C)(C)[C@@](C)(c2cc(Nc3cccc(C#N)c3)ccc2F)N=C1N [Example 167, 3-[3-((S)-2-Amino-1,4,5,5-tetramethyl-6-oxo-1,4,5,6-tetrahydro-pyrimidin-4-yl)-4-fluoro-phenylamino]-benzonitrile] | 7.14

Biological target: endogenous cellular BACE2 in the Ins1e rat cell line (Rattus norvegicus (Rat), UniProt Q6IE75)
Sequence (Q6IE75 63-514): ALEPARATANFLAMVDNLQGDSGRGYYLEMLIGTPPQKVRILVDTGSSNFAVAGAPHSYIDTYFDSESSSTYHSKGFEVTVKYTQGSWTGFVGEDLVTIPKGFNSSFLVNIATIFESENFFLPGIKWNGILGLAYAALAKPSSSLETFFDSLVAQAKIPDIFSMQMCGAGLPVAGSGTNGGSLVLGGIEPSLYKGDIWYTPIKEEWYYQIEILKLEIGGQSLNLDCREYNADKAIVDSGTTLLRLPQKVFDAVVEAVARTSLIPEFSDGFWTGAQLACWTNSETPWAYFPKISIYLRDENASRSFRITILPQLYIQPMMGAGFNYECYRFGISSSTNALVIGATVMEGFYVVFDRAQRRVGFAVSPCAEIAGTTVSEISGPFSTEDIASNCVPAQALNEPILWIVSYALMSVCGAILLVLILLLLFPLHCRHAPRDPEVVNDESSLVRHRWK
Assay: Assay for BACE inhibition by measuring cellular TMEM27 cleavage (ELISA of shed hTMEM27 from INS-TMEM27 cells)
Format: cell-based
Details: assay a): cellular TMEM27 cleavage, INS-TMEM27 cells (superscript a)
Procedure, shortened: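 INS1e-derived cells with doxycycline-inducible (TetOn) full-length human TMEM27 get inhibitor 2 h before 500 ng/ml doxycycline, then 46 h further culture at 37 °C. Shed TMEM27 in supernatant measured by sandwich ELISA (anti-extracellular-domain antibodies); EC50 from concentration-response curve fit.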

SMILES | pIC50
CC(Cc1ccc(F)cc1)Nc1ccc(F)c([C@@]2(C)N=C(N)N(C)C(=O)C2(C)C)c1 (stereo partly drawn) [Example 42, (S)-2-Amino-6-{2-fluoro-5-[2-(4-fluoro-phenyl)-1-methyl-ethylamino]-phenyl}-3,5,5,6-tetramethyl-5,6-dihydro-3H-pyrimidin-4-one] | 6.68
Cc1cc(Nc2ccc(F)c([C@@]3(C)N=C(N)N(C)C(=O)C3(C)C)c2)ccc1C#N [Example 149, (S)-4-(3-(2-Amino-1,4,5,5-tetramethyl-6-oxo-1,4,5,6-tetrahydropyrimidin-4-yl)-4-fluorophenylamino)-2-methylbenzonitrile] | 7.09
CN1C(=O)C(C)(C)[C@@](C)(c2cc(NCCC(F)(F)F)ccc2F)N=C1N [Example 54, (S)-2-Amino-6-(2-fluoro-5-(3,3,3-trifluoropropylamino)phenyl)-3,5,5,6-tetramethyl-5,6-dihydropyrimidin-4(3H)-one] | 7.12
CN1C(=O)C[C@@](C)(c2cccc(NC(=O)C3(C(F)(F)F)CC3)c2)N=C1N [Example 12, 1-Trifluoromethyl-cyclopropanecarboxylic acid [3-((S)-2-amino-1,4-dimethyl-6-oxo-1,4,5,6-tetrahydro-pyrimidin-4-yl)-phenyl]-amide] | 7.64
CN1C(=O)C(C)(C)[C@@](C)(c2cc(Nc3cccc4c3OCC4)ccc2F)N=C1N [Example 157, (S)-2-Amino-6-(5-(2,3-dihydrobenzofuran-7-ylamino)-2-fluorophenyl)-3,5,5,6-tetramethyl-5,6-dihydropyrimidin-4(3H)-one] | 6.18
CN1C(=O)C(C)(C)[C@@](C)(c2cc(Nc3ccn(C)n3)ccc2F)N=C1N [Example 99, (S)-2-Amino-6-[2-fluoro-5-(1-methyl-1H-pyrazol-3-ylamino)-phenyl]-3,5,5,6-tetramethyl-5,6-dihydro-3H-pyrimidin-4-one] | 8.22
Cc1cn[nH]c1CNc1ccc(F)c([C@@]2(C)N=C(N)N(C)C(=O)C2(C)C)c1 [Example 110, (S)-2-Amino-6-{2-fluoro-5-[(4-methyl-2H-pyrazol-3-ylmethyl)-amino]-phenyl}-3,5,5,6-tetramethyl-5,6-dihydro-3H-pyrimidin-4-one] | 6.41
CN1C(=O)C(C)(C)[C@@](C)(c2cc(NC(=O)C3(O)CCC3)ccc2F)N=C1N [Example 147, (S)—N-(3-(2-amino-1,4,5,5-tetramethyl-6-oxo-1,4,5,6-tetrahydropyrimidin-4-yl)-4-fluorophenyl)-1-hydroxycyclobutanecarboxamide] | 6.57
CN1C(=O)C(C)(C)[C@@](C)(c2cc(NC3CCCN(Cc4ccccc4)C3)ccc2F)N=C1N (stereo partly drawn) [Example 44, (S)-2-Amino-6-[5-(1-benzyl-piperidin-3-ylamino)-2-fluoro-phenyl]-3,5,5,6-tetramethyl-5,6-dihydro-3H-pyrimidin-4-one] | 7.35
CN1C(=O)C(C)(C)[C@@](C)(c2cc(NC(=O)C3(C(F)(F)F)CCC3)ccc2F)N=C1N [Example 4, 1-Trifluoromethyl-cyclobutanecarboxylic acid [3-((S)-2-amino-1,4,5,5-tetramethyl-6-oxo-1,4,5,6-tetrahydro-pyrimidin-4-yl)-4-fluoro-phenyl]-amide] | 7.07
COc1ccc(Nc2ccc(F)c([C@@]3(C)N=C(N)N(C)C(=O)C3(C)C)c2)c(OC)c1 [Example 108, (S)-2-Amino-6-(5-(2,4-dimethoxyphenylamino)-2-fluorophenyl)-3,5,5,6-tetramethyl-5,6-dihydropyrimidin-4(3H)-one] | 6.75
CN1C(=O)C(C)(C)[C@@](C)(c2cc(NC(=O)C3(C)CC3)ccc2F)N=C1N [Example 18, (S)—N-(3-(2-Amino-1,4,5,5-tetramethyl-6-oxo-1,4,5,6-tetrahydropyrimidin-4-yl)-4-fluorophenyl)-1-methylcyclopropanecarboxamide] | 7.64
COc1cccc2c1CCC2Nc1ccc(F)c([C@@]2(C)N=C(N)N(C)C(=O)C2(C)C)c1 (stereo partly drawn) [Example 47, (S)-2-Amino-6-[2-fluoro-5-(4-methoxy-indan-1-ylamino)-phenyl]-3,5,5,6-tetramethyl-5,6-dihydro-3H-pyrimidin-4-one] | 6.66
CN1C(=O)C(C)(C)[C@@](C)(c2cc(NCc3nn(C)cc3Cl)ccc2F)N=C1N [Example 96, (S)-2-Amino-6-{5-[(4-chloro-1-methyl-1H-pyrazol-3-ylmethyl)-amino]-2-fluoro-phenyl}-3,5,5,6-tetramethyl-5,6-dihydro-3H-pyrimidin-4-one] | 9.00
CN1C(=O)C(C)(C)[C@@](C)(c2cc(NCC3(C)CC3(F)F)ccc2F)N=C1N (stereo partly drawn) [Example 68, (S)-2-Amino-6-{5-[(2,2-difluoro-1-methyl-cyclopropylmethyl)-amino]-2-fluoro-phenyl}-3,5,5,6-tetramethyl-5,6-dihydro-3H-pyrimidin-4-one] | 8.52
CN1C(=O)C(C)(C)[C@@](C)(c2cccc(NC(=O)C3(C#N)CC3)c2)N=C1N [Example 1, 1-Cyano-cyclopropanecarboxylic acid [3-((R)-2-amino-1,4,5,5-tetramethyl-6-oxo-1,4,5,6-tetrahydro-pyrimidin-4-yl)-phenyl]-amide] | 7.24
Cc1cc(C(C)Nc2ccc(F)c([C@@]3(C)N=C(N)N(C)C(=O)C3(C)C)c2)[nH]n1 (stereo partly drawn) [Example 125, (S)-2-Amino-6-{2-fluoro-5-[1-(5-methyl-2H-pyrazol-3-yl)-ethylamino]-phenyl}-3,5,5,6-tetramethyl-5,6-dihydro-3H-pyrimidin-4-one] | 7.55
CN1C(=O)C(C)(C)[C@@](C)(c2cc(NC3CCN(Cc4ccccc4)C3)ccc2F)N=C1N (stereo partly drawn) [Example 32, (6S)-2-Amino-6-(5-(1-benzylpyrrolidin-3-ylamino)-2-fluorophenyl)-3,5,5,6-tetramethyl-5,6-dihydropyrimidin-4(3H)-one] | 7.49
CC1CCC(Nc2ccc(F)c([C@@]3(C)N=C(N)N(C)C(=O)C3(C)C)c2)C1 (stereo partly drawn) [Example 24, (S)-2-Amino-6-[2-fluoro-5-(3-methyl-cyclopentylamino)-phenyl]-3,5,5,6-tetramethyl-5,6-dihydro-3H-pyrimidin-4-one] | 7.41
COc1ccc(C(=O)O)cc1Nc1ccc(F)c([C@@]2(C)N=C(N)N(C)C(=O)C2(C)C)c1 [Example 129, (S)-3-(3-(2-amino-1,4,5,5-tetramethyl-6-oxo-1,4,5,6-tetrahydropyrimidin-4-yl)-4-fluorophenylamino)-4-methoxybenzoic acid] | 5.52
CN1C(=O)C(C)(C)[C@@](C)(c2cc(NC(=O)C(C(F)(F)F)C(F)(F)F)ccc2F)N=C1N [Example 7, N-[3-((S)-2-Amino-1,4,5,5-tetramethyl-6-oxo-1,4,5,6-tetrahydro-pyrimidin-4-yl)-4-fluoro-phenyl]-3,3,3-trifluoro-2-trifluoromethyl-propionamide] | 6.00
COc1ccc(F)cc1Nc1ccc(F)c([C@@]2(C)N=C(N)N(C)C(=O)C2(C)C)c1 [Example 84, (S)-2-Amino-6-(2-fluoro-5-(5-fluoro-2-methoxyphenylamino)phenyl)-3,5,5,6-tetramethyl-5,6-dihydropyrimidin-4(3H)-one] | 7.16
Cc1ccccc1Nc1ccc(F)c([C@@]2(C)N=C(N)N(C)C(=O)C2(C)C)c1 [Example 55, (S)-2-Amino-6-(2-fluoro-5-(o-tolylamino)phenyl)-3,5,5,6-tetramethyl-5,6-dihydro-pyrimidin-4(3H)-one] | 6.94
